We go through 4 molecules from patent publication US9988430B2, “Stable GLP-1 based GLP-1/glucagon receptor co-agonists” (Novo Nordisk A/S, priority 2014, dated 2018).

The structures appear in SMILES notation. *1 amine or outer side, *2 acyl side, *3 side chain or, on linkers, in order; H or OH if unused. Where a SMILES comes first, the peptide text is derived from it. Side-chain parts run from the residue outwards. [ ]: non-standard residue; d: D form. The star is where a group is joined. C18 diacid = O=C(O)CCCCCCCCCCCCCCCCC(=O)*; γGlu = O=C(O)[C@H](CCC(=O)[*:2])N[*:1]; Desaminohistidyl = O=C(CCc1c[nH]cn1)*; AEEA = NCCOCCOCC(=O)O; Aib = CC(C)(N)C(=O)O

The test deals with T1, human glucagon receptor (Homo sapiens, UniProt P47871).
T1 construct: expressed in transfected cells; host or cells: membranes of BHK cells, clone BHK hGCGR A3*25
T1 sequence (P47871 26-477): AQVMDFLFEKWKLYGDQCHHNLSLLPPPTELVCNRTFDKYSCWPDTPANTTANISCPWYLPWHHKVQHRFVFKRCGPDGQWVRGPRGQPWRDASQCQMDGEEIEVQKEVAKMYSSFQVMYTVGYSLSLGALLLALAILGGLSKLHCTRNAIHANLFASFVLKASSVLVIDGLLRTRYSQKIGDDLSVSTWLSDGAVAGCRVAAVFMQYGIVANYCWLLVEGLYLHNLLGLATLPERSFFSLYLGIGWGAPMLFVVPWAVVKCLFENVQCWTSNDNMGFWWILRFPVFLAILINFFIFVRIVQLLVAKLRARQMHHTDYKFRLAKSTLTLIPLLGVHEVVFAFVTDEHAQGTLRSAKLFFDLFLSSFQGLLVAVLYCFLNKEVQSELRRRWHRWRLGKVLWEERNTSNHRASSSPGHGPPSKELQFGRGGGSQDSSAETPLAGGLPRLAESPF
The test can be described thus: Assay (II)(b): glucagon receptor binding, [125I]-glucagon displacement, SPA on BHK membranes. The settings on record: displacement of [125I]-glucagon, membranes with human glucagon receptor; read-out: IC50 GlucagonR. On the procedure: Assay (II): GLP-1 and Glucagon Receptor Binding The purpose of this assay is to test the in vitro receptor binding activity of the GLP-1 derivatives of the invention. (b) Glucagon Receptor Binding The glucagon receptor (glucagonR) binding activity is a measure of affinity of a derivative for the human glucagon receptor. The glucagon receptor binding of each derivative were determined with competitive binding, displacing [^125I]-glucagon bound to glucagon receptors expressed in cell membranes associated with wheat germ agglutinin (WGA) scintillation proximity assay (SPA) beads. Each derivative was added in a series of concentrations to isolated membranes comprising the human glucagon receptor and displacement of the labelled ligand was monitored. The receptor binding was reported as the concentration at which half of the labelled ligand is displaced from the receptor, the IC^50 value. The following chemicals were used in the assay: DMEM w Glutamax (Gibco 61965-026), Pen/strep (Invitrogen 15140-122), G418 (Invitrogen 10131-027), Versene (Gibco 15040), 1 M Hepes (Gibco 15630), PBS (Invitrogen 14190-094), fetal calf serum (Invitrogen 16140-071), MgCl2 (Merck 1.05832.1000), EDTA (Invitrogen 15575-038), CaCl2 (Sigma, C5080), Tween 20 (Amresco 0850C335), ovalbumin (Sigma A5503), SPA particles (wheat germ agglutinin (WGA) SPA beads, Perkin Elmer RPNQ0001), [125I]-glucagon (produced in-house), OptiPlate™-96 (Packard 6005290). HME buffer consisted of 25 mM HEPES, 2 mM MgCl2 and 1 mM EDTA, and pH was adjusted to 7.4. Assay buffer consisted of 50 mM HEPES supplemented with 5 mM MgCl2, 1 mM CaCl2, 0.02% Tween 20 and 0.1% Ovalbumin, and pH was adjusted to 7.4. The cells used in this assay (clone BHK hGCGR A3*25) were BHK cells stable transfected with an expression plasmid comprising the cDNA encoding the human glucagon receptor. The cells were grown at 5% CO2 in DMEM, 10% fetal calf serum, 1% Pen/Strep (Penicillin/Streptomycin) and 1.0 mg/ml of the selection marker G418. To make a membrane preparation the cells were grown to approximately 80% confluence. The cells were washed twice in phosphate-buffered saline and harvested. The cells were pelleted using a brief centrifugation and the cell pellet was kept on ice. Lyse the cells by adding approx. 5 ml HME buffer, mix by pipetting and snap freeze in liquid nitrogen. Thaw quickly and add HME buffer to 10 ml. The cell pellet was homogenised with an ULTRA-THURRAX dispersing instrument for 20-30 seconds. The homogenate was centrifuged at 20.000×G, 4° C. for 10 minutes. The pellet was resuspended (homogenised) in 1-2 ml HME buffer. The protein concentration was determined. The membranes were aliquoted and snapfrozen in liquid nitrogen and stored at minus 80° C. • 1. For the receptor binding assay 50 μl of the assay buffer was added to each well of an assay plate. • 2. Test compounds were serially diluted to give the following concentrations: 8×10EE-7 M, 8×10EE-8 M, 8×10EE-9 M, 8×10EE-10 M, 8×10EE-11 M, 8×10EE-12 M and 8×10EE-13 M. Twenty-five μl were added to appropriate wells in the assay plate. • 3. Cell membrane aliquots were thawed and diluted to their working concentration. Fifty μl were added to each well in the assay plate. • 4. WGA SPA beads were suspended in assay buffer at 20 mg/ml. The suspension was diluted to 10 mg/ml in assay buffer just prior to addition to the assay plate. Fifty μl were added to each well in the assay plate. • 5. The incubation was started by adding 25 μl of 480 pM solution of [125I]-glucagon to each well of the assay plate. A 25 μl aliquot was reserved for measuring total counts/well. • 6. The assay plate was incubated for 2 h at 25° C. • 7. The assay plate was centrifuged for 10 min at 1500 rpm. • 8. The assay plate was read in a Perkin Elmer TopCount NXT instrument. Calculations The data from the TopCount instrument were transferred to GraphPad Prism software. The software averaged the values for the replicates and performed a non-linear regression. […]
A general note: Loss of bound radioactivity is the signal in a displacement assay; it reports binding, not function.
By IC50 is commonly meant the point on the concentration scale where inhibition reaches its midpoint. Take `CC[C@H](C)[C@H](NC(=O)[C@H](Cc1ccccc1)NC(=O)[C@H](CCC(=O)O)NC(=O)[C@H](CCCNC(=N)N)NC(=O)[C@H](C)NC(=O)[C@H](C)NC(=O)[C@H](CCC(N)=O)NC(=O)[C@H](CCC(=O)O)NC(=O)[C@H](CCC(=O)O)NC(=O)[C@H](CC(C)C)NC(=O)[C@H](Cc1ccc(O)cc1)NC(=O)[C@H](CCCCN)NC(=O)[C@H](CO)NC(=O)[C@@H](NC(=O)[C@H](CC(=O)O)NC(=O)[C@H](CO)NC(=O)[C@@H](NC(=O)[C@H](Cc1ccccc1)NC(=O)[C@@H](NC(=O)CNC(=O)[C@H](Cc1c[nH]cn1)NC(=O)C(C)(C)NC(=O)CCc1c[nH]cn1)[C@@H](C)O)[C@@H](C)O)C(C)C)C(=O)N[C@@H](C)C(=O)N[C@@H](Cc1c[nH]c2ccccc12)C(=O)N[C@@H](CC(C)C)C(=O)N[C@@H](CC(C)C)C(=O)N[C@@H](CCCCNC(=O)CNC(=O)[C@H](CO)NC(=O)CC[C@H](NC(=O)CC[C@H](NC(=O)CCCCCCCCCCCCCCCCC(=O)O)C(=O)O)C(=O)O)C(=O)N[C@H](C(N)=O)[C@@H](C)O` [Example 4, N^ε34-[2-[[(2S)-2-[[(4S)-4-carboxy-4-[[(4S)-4-carboxy-4-(17-carboxyheptadecanoylamino)butanoyl]amino]butanoyl]amino]-3-hydroxypropanoyl]amino]acetyl]-[Imp7,Aib8,His9,Lys18,Glu22,Arg26,Leu33,Thr35]-GLP-1-(7-35)-peptide amide] (Desaminohistidyl-[Aib]HGTFTSDVSKYLEEQAAREFIAWLLK([Gly-Ser-γGlu-γGlu-C18 diacid])T-NH2): the 50% inhibitory concentration (IC50) was determined as 4.3 nM.

As for `CC[C@H](C)[C@H](NC(=O)[C@H](Cc1ccccc1)NC(=O)[C@H](CCC(=O)O)NC(=O)[C@H](CCCNC(=N)N)NC(=O)[C@H](C)NC(=O)[C@H](C)NC(=O)[C@H](CCC(N)=O)NC(=O)[C@H](CCC(=O)O)NC(=O)[C@H](CCC(=O)O)NC(=O)[C@H](CC(C)C)NC(=O)[C@H](Cc1ccc(O)cc1)NC(=O)[C@H](CCCCN)NC(=O)[C@H](CO)NC(=O)[C@@H](NC(=O)[C@H](CC(=O)O)NC(=O)[C@H](CO)NC(=O)[C@@H](NC(=O)[C@H](Cc1ccccc1)NC(=O)[C@@H](NC(=O)CNC(=O)[C@H](Cc1c[nH]cn1)NC(=O)C(C)(C)NC(=O)CCc1c[nH]cn1)[C@@H](C)O)[C@@H](C)O)C(C)C)C(=O)N[C@@H](C)C(=O)N[C@@H](Cc1c[nH]c2ccccc12)C(=O)N[C@@H](CC(C)C)C(=O)N[C@@H](CC(C)C)C(=O)N[C@@H](CCCCNC(=O)COCCOCCNC(=O)COCCOCCNC(=O)CC[C@H](NC(=O)CC[C@H](NC(=O)CCCCCCCCCCCCCCCCC(=O)O)C(=O)O)C(=O)O)C(=O)N[C@H](C(N)=O)[C@@H](C)O` [Example 5, N^ε34-[2-[2-[2-[[2-[2-[2-[[(4S)-4-carboxy-4-[[(4S)-4-carboxy-4-(17-carboxyheptadecanoylamino)butanoyl]amino]butanoyl]amino]ethoxy]ethoxy]acetyl]amino]ethoxy]ethoxy]acetyl]-[Imp7,Aib8,His9,Lys18,Glu22,Arg26,Leu33,Thr35]-GLP-1-(7-35)-peptide amide] (Desaminohistidyl-[Aib]HGTFTSDVSKYLEEQAAREFIAWLLK([AEEA-AEEA-γGlu-γGlu-C18 diacid])T-NH2), the IC50 is 4.3 nM.

For the molecule `CC[C@H](C)[C@H](NC(=O)[C@H](Cc1ccccc1)NC(=O)[C@H](CCC(=O)O)NC(=O)[C@H](CCCNC(=N)N)NC(=O)[C@H](C)NC(=O)[C@H](C)NC(=O)[C@H](CCCNC(=N)N)NC(=O)[C@H](C)NC(=O)[C@H](CCC(=O)O)NC(=O)[C@H](CC(C)C)NC(=O)[C@H](Cc1ccc(O)cc1)NC(=O)[C@H](CCCCN)NC(=O)[C@H](CO)NC(=O)[C@@H](NC(=O)[C@H](CC(=O)O)NC(=O)[C@H](CO)NC(=O)[C@@H](NC(=O)[C@H](Cc1ccccc1)NC(=O)[C@@H](NC(=O)CNC(=O)[C@H](Cc1c[nH]cn1)NC(=O)C(C)(C)NC(=O)CCc1c[nH]cn1)[C@@H](C)O)[C@@H](C)O)C(C)C)C(=O)N[C@@H](C)C(=O)N[C@@H](Cc1c[nH]c2ccccc12)C(=O)N[C@@H](CC(C)C)C(=O)N[C@@H](CC(C)C)C(=O)N[C@@H](CCCCNC(=O)CC[C@H](NC(=O)COCCOCCNC(=O)COCCOCCNC(=O)CC[C@H](NC(=O)CC[C@H](NC(=O)CCCCCCCCCCCCCCCCC(=O)O)C(=O)O)C(=O)O)C(=O)O)C(=O)NCC(=O)NCC(=O)NCC(=O)O` [Example 31, N^ε34-[(4S)-4-carboxy-4-[[2-[2-[2-[[2-[2-[2-[[(4S)-4-carboxy-4-[[(4S)-4-carboxy-4-(17-carboxyheptadecanoylamino)butanoyl]amino]butanoyl]amino]ethoxy]ethoxy]acetyl]amino]ethoxy]ethoxy]acetyl]amino]butanoyl]-[Imp7,Aib8,His9,Lys18,Ala22,Arg23,Arg26,Leu33,Gly36]-GLP-1-(7-37)-peptide] (Desaminohistidyl-[Aib]HGTFTSDVSKYLEARAAREFIAWLLK([γGlu-AEEA-AEEA-γGlu-γGlu-C18 diacid])GGG-OH), the IC50 turned out to be 3.7 nM.

Consider `CC[C@H](C)[C@H](NC(=O)[C@H](Cc1ccccc1)NC(=O)[C@H](CCC(=O)O)NC(=O)[C@H](CCCNC(=N)N)NC(=O)[C@H](C)NC(=O)[C@H](C)NC(=O)[C@H](CCCNC(=N)N)NC(=O)CNC(=O)[C@H](CCC(=O)O)NC(=O)[C@H](CC(C)C)NC(=O)[C@H](Cc1ccc(O)cc1)NC(=O)[C@H](CCCNC(=N)N)NC(=O)[C@H](CO)NC(=O)[C@@H](NC(=O)[C@H](CC(=O)O)NC(=O)[C@H](CO)NC(=O)[C@@H](NC(=O)[C@H](Cc1ccccc1)NC(=O)[C@@H](NC(=O)CNC(=O)[C@H](Cc1c[nH]cn1)NC(=O)C(C)(C)NC(=O)CCc1c[nH]cn1)[C@@H](C)O)[C@@H](C)O)C(C)C)C(=O)N[C@@H](C)C(=O)N[C@@H](Cc1c[nH]c2ccccc12)C(=O)N[C@@H](CC(C)C)C(=O)N[C@@H](CC(C)C)C(=O)N[C@@H](CCCCNC(=O)CC[C@H](NC(=O)CC[C@H](NC(=O)COCCOCCNC(=O)CC[C@H](NC(=O)CC[C@H](NC(=O)CCCCCCCCCCCCCCCCC(=O)O)C(=O)O)C(=O)O)C(=O)O)C(=O)O)C(=O)NCC(=O)N[C@@H](C)C(=O)NCC(=O)O` [Example 35, N^ε34-[(4S)-4-carboxy-4-[[(4S)-4-carboxy-4-[[2-[2-[2-[[(4S)-4-carboxy-4-[[(4S)-4-carboxy-4-(17-carboxyheptadecanoylamino)butanoyl]amino]butanoyl]amino]ethoxy]ethoxy]acetyl]amino]butanoyl]amino]butanoyl]-[Imp7,Aib8,His9,Arg18,Arg23,Arg26,Leu33,Ala36]-GLP-1-(7-37)-peptide] (Desaminohistidyl-[Aib]HGTFTSDVSRYLEGRAAREFIAWLLK([γGlu-γGlu-AEEA-γGlu-γGlu-C18 diacid])GAG-OH), for which the 50% inhibitory concentration (IC50) was found to be 18.8 nM.
